Laboratory results published in patent US8663927B2, “Systems and methods for diagnosis and monitoring of bacteria-related conditions” (priority 2007, dated 2014).

Tests used:
RhlR = biological target: T1, RhlR (Pseudomonas aeruginosa, UniProt P54292); test: Whole-cell sensing system harboring plasmid pSB406 (rhlR, PrhlI::luxCDABE) in E. coli JM109, bioluminescence; format: cell-based; conditions: for response of the biosensing system at the highest concentration tested: pSB406, 1×10^−4 M; for Limit of Detection: concentration giving signal >= blank average plus three standard deviations; for Signal Intensity at 1 × 10^−4 M: pSB406 sensing cells, 2 h incubation at 37° C., racemic AHL, average ± one standard deviation
T1 construct: expressed in transfected cells; host or cells: Escherichia coli JM109 transformed with plasmid pSB406
Description: (§1) The bacterial strain Escherichia coli JM109 was purchased from Stratagene (Cedar Creek, Tex.). Plasmids pSB406 and pSB1075 were transformed respectively into competent E. coli JM109 cells using the standard protocol provided by the manufacturer. The transformed cells were grown at 37° C. overnight on LB agar plates containing 50 μg/mL ampicillin. Cells from a single colony were grown overnight at 37° C., 250 rpm in LB broth containing the same amount (w/v) of ampicillin. Glycerol stocks were prepared from those cell cultures and stored at −80° C. Fresh cell cultures were obtained from the glycerol stocks and grown in an orbital shaker at 37° C., 250 rpm until an optical density at 600 nm (OD600 nm) of 0.45-0.50 was reached.
(§2) Commercially available AHLs were dissolved in acetonitrile to obtain 1×10^−2 M stock solutions, which were serially diluted with distilled, deionized water. AHL standard solutions of concentrations ranging from 1×10^−4 to 1×10^−9 M were obtained. A 1% solution of acetonitrile in distilled, deionized water was used as blank. […] A total of 100 μL of each of these solutions was added in triplicate to culture tubes containing 1 mL of cell culture grown to an OD600 nm of 0.45-0.50. These culture tubes were then incubated in an orbital shaker at 37° C. at 250 rpm for 2 h. The induced bioluminescence was then measured using a microplate reader after transferring 200 μL aliquots in triplicate from each culture tube into a 96-well micro titer plate. The total measuring time/well was 0.20 s. The light intensity was expressed in relative light units (RLU). The results were plotted using the software GraphPad Prism 4 (GraphPad Software, Inc., San Diego, Calif.).
(§3) Two different whole-cell sensing systems were used, harboring either the pSB406 or pSB1075 plasmid, which are based on P. aeruginosa quorum sensing regulatory systems. The plasmids pSB406 and pSB 1075 incorporate the genes rhlR and lasR, respectively, and the reporter gene cassette luxCDABE under transcriptional control of the promoters of the genes rhlI and lasI (PrhlI and PlasI) respectively. Since the rhlI and lasI genes code for the synthases for the AHLs, they are not cloned into plasmids used for sensing. When AHLs are present in the environment of the sensing bacterial cells, they bind to the regulatory proteins RhlR and LasR. Subsequently, the regulatory protein-AHL complex binds to the corresponding promoter and activates gene transcription (see, e.g., FIG. 2A for a schematic representation of AHL-dependent regulation of quorum sensing in LuxR/LuxI-type systems, and FIG. 2B for a schematic representation of plasmids pSB1075 and pSB406). As a result, the luxCDABE cassette is expressed and a bioluminescent signal is produced. Further, the bioluminescence signal produced is directly proportional to the amount of the target AHL molecule present.
Characterization of the whole-cell biosensing systems for the detection of AHLs was performed by incubating the bacterial cells with standard N-acyl homoserine lactone compounds with acyl side chains of different lengths. […] [19] […] Both compounds could be detected at concentrations as low as 1×10^−9 M, with a dynamic range of 4 orders of magnitude. The limit of detection was defined as the analyte concentration that produced a signal equal to or higher than the average signal produced by the blank plus three standard deviations.

LasR = biological target: T2, LasR (Pseudomonas aeruginosa, UniProt P25084); test: Whole-cell sensing system harboring plasmid pSB1075 (lasR, PlasI::luxCDABE) in E. coli JM109, bioluminescence; format: cell-based; conditions: for Dynamic Range / Limit of Detection: pSB1075; for Limit of Detection: concentration giving signal >= blank average plus three standard deviations; for Signal Intensity at 1 × 10^−4 M: pSB1075 sensing cells, 2 h incubation at 37° C., racemic AHL, average ± one standard deviation (n = 3)
T2 construct: expressed in transfected cells; host or cells: Escherichia coli JM109 transformed with plasmid pSB1075
Description: as §1, §2, §3
The limit of detection was 1×10^−9 M for C14-HSL, as well as C12-HSL.

V. harveyi strain BB170 = test: AI-2 whole-cell sensing with bioluminescent sensor strain BB170; format: cell-based, Vibrio harveyi; conditions: 10^−7 M AI-2, after 2.5 hours of incubation with the BB170 sensor strain
Description: AB media used to grow V. harveyi strain BB170, a genetically modified strain that produces light in response to AI-2, was prepared as described previously. The BB170 sensor strain was grown overnight in AB medium at 30° C. and 175 rpm. The following day, overnight grown BB170 culture was diluted in AB medium to obtain a final O.D.600 nm of 0.010.
Saliva samples were collected and processed as described hereinabove. The available stock of AI-2 was 3.9 mM. AI-2 standard solutions with concentrations ranging from 2.5×10^−4M to 10^−7M were then prepared by using distilled, deionized water. 10 μL of AI-2 standard solution was incubated with 90 μL of BB170 bacterial culture at O.D.600 nm 0.010, in triplicate on a microtitre plate. 10 μL water incubated with 90 μL of BB170 served as a blank. An orbital shaker set at 30° C. and 175 rpm was used for incubation. Bioluminescence was then measured over a period of time. In order to evaluate the effect of saliva matrix, saliva samples were also spiked with a particular concentration of AI-2 and then incubated with the BB170 strain. […]
Vibrio harveyi bioluminescent strain BB170 was used for the detection of AI-2 and was modified from the wild type V. harveyi so that it induces lux expression exclusively in response to AI-2. AI-2 is detected by BB170 when it binds to the periplasmic protein LuxP. […]

T2 sequence (P25084 whole entry): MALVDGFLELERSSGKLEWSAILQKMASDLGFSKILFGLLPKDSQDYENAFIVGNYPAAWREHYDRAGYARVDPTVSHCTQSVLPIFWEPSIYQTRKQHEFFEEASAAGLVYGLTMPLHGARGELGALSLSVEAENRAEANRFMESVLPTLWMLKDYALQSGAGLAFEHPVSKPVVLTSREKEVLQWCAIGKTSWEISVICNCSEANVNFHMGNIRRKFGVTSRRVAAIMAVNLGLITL
T1 sequence (P54292 whole entry): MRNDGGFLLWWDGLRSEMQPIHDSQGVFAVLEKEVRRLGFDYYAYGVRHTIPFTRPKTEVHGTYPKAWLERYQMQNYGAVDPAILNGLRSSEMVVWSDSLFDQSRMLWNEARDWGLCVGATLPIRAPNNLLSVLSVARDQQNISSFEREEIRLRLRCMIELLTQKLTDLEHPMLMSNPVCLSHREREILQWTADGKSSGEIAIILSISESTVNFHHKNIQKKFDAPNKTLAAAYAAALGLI

Molecule	L-isomer versus DL-racemic mixture: limit of detection, dynamic range and maximum signal intensity of the dose-response curves (RhlR; pSB406)	Dynamic Range (RhlR; pSB406) [nM]	dynamic range (RhlR; pSB406)	response of the biosensing system at the highest concentration tested (RhlR)	Limit of Detection (RhlR; pSB406) [nM]	Signal Intensity at 1 × 10^−4 M (RhlR)	Dynamic Range (LasR) [nM]	Limit of Detection (LasR) [nM]	Signal Intensity at 1 × 10^−4 M (LasR)	response of the whole-cell sensor at the highest concentration tested (LasR; pSB1075, 1×10^−4 M)	Average Signal (V. harveyi strain BB170) [RLU]
CCCC(=O)CC(=O)N[C@H]1CCOC1=O [3-oxo-C6-HSL, N-(3-oxo)-hexanoyl homoserine lactone]	no significant differences										
CCCC(=O)NC1CCOC1=O (centres unmarked) [C4-HSL, N-butyryl homoserine lactone]		1 to 100000	4 orders of magnitude	induced the maximum response	1	19.99 ± 0.00 ×10^5, RLU	100 to 100000	100	1.87 ± 0.06 ×10^5, RLU		
CCCCCC(=O)NC1CCOC1=O (centres unmarked) [C6-HSL, N-hexanoyl homoserine lactone]		1 to 100000	4 orders of magnitude	induced the maximum response	1	19.64 ± 0.25 ×10^5, RLU		>100000	2.53 ± 1.15 ×10^5, RLU		
CCCCCCCC(=O)NC1CCOC1=O (centres unmarked) [C8-HSL, N-octanoyl homoserine lactone]		1 to 100000			1	6.87 ± 0.23 ×10^5, RLU	10000 to 100000	10000	7.94 ± 0.70 ×10^5, RLU		
CCCCCCCCCCCC(=O)NC1CCOC1=O (centres unmarked) [C12-HSL, N-dodecanoyl homoserine lactone]		10 to 10000			10	8.40 ± 0.55 ×10^5, RLU	1 to 10000	1	8.99 ± 0.17 ×10^5, RLU		
CCCCCCCCCCCCCC(=O)NC1CCOC1=O (centres unmarked) [C14-HSL, N-tetradecanoyl homoserine lactone]					>10000	4.22 ± 0.22 ×10^5, RLU	1 to 100000	1	11.74 ± 0.09 ×10^5, RLU	induced the maximum response	
Autoinducer-2 [AI-2]											324218
